The values below come from publication PMC8092523 (Antimicrobial Agents and Chemotherapy, 2021).

For assay [1], the system named is pYL42 and pYL53 strains. Format: cell-based, Mycobacterium smegmatis.
For assay [2], the system named is mc^27000:Δc− strain with pYL60 or pYL3. Format: cell-based, M. tuberculosis.

In the case of `CN[C@@H]1[C@H](O)[C@H](NC)[C@H]2O[C@]3(O)[C@H](O[C@@H]2[C@H]1O)O[C@H](C)C[C@H]3NC(=O)Cc1ccc(Cl)cn1` [Spa], the “bactericidal activity against pYL53 compared with pYL42 strain” value in assay [1] was “at least an order of magnitude lower”. The “bactericidal activity against pYL60 strain compared with pYL3 control strain” value in assay [2] was “significantly decreased”.
